Assay results published in ChEMBL document CHEMBL5214890 (Eur J Med Chem, 2021).
Calls of active or inactive are those of the source. The rule behind the calls is not given here. Where a SMILES comes first, the peptide text is derived from it. [ ]: non-standard residue; d: D form. ξ: configuration not given here. Thr(3ξ) = CC(O)[C@H](N)C(=O)O; Aib = CC(C)(N)C(=O)O

How the values were obtained:
[1] = molecular target: Glucagon receptor (Homo sapiens, UniProt P47871); experiment: Agonist activity at human GCGR expressed in HEK293 cells incubated for 30 mins and assessed as increase in cAMP accumulation measured by HTRF assay; type: functional, cell-based
Glucagon receptor, sequence (P47871 whole entry): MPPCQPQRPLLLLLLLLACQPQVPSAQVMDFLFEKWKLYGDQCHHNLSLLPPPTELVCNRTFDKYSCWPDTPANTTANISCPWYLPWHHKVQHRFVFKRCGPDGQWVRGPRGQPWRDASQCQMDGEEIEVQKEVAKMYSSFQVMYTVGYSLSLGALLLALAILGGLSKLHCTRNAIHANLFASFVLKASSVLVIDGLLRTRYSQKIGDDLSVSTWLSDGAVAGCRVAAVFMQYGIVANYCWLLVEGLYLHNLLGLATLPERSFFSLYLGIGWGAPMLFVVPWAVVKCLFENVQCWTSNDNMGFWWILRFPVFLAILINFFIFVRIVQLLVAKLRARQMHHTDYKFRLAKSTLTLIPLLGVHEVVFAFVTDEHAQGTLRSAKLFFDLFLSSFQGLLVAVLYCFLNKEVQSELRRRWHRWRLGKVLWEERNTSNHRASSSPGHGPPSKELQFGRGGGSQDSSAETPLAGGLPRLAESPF

[2] = molecular target: T1, Glucagon-like peptide 1 receptor (Homo sapiens, UniProt P43220); experiment: Agonist activity at human GLP-1R expressed in HEK293 cells incubated for 30 mins and assessed as increase in cAMP accumulation measured by HTRF assay relative to control; type: functional, cell-based; design: concentration or dose not given beside the values
T1 sequence (P43220 whole entry): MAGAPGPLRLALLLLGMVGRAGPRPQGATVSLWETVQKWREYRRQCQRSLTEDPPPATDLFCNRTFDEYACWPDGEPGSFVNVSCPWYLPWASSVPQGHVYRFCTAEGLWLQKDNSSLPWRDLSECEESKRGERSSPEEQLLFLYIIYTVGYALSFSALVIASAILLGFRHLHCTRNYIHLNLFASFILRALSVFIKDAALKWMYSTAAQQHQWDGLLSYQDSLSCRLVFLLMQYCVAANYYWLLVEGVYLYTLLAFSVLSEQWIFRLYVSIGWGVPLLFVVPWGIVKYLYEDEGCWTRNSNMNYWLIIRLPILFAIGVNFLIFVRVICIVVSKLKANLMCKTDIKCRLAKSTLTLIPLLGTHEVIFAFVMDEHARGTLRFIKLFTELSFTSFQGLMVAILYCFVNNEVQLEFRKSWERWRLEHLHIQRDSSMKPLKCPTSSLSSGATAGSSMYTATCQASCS

[3] = molecular target: T1, Glucagon-like peptide 1 receptor; experiment: Agonist activity at human GLP-1R expressed in HEK293 cells incubated for 30 mins and assessed as increase in cAMP accumulation measured by HTRF assay; type: functional, cell-based
[4] = tested on: Mus musculus; experiment: Antidiabetic activity in male […] assessed as reduction in body weight at 30 nmol/kg, sc administered twice daily for 3 weeks; type: functional; design: scale not given: the % may be the effect or the level left
[5] = tested on: Mus musculus; experiment: Antidiabetic activity in male […] assessed as increase in plasma insulin level at 30 nmol/kg, sc administered twice daily for 3 weeks; type: functional, organism-based
[6] = tested on: Mus musculus; experiment: Antidiabetic activity in male […] assessed as increase in plasma FGF21 level at 30 nmol/kg, sc administered twice daily for 3 weeks; type: functional, organism-based
[7] = Toxicity in male […] assessed as normalization of hepatic lipid content at 30 nmol/kg, sc administered twice daily for 3 weeks; type: organism-based; conditions: in vivo, 504 h
[8] = tested on: Mus musculus; experiment: Antidiabetic activity in male […] assessed as decrease in serum LDL-C level at 30 nmol/kg, sc administered twice daily for 3 weeks; type: functional, organism-based
[9] = tested on: Mus musculus; experiment: Antidiabetic activity in male […] assessed as reduction in fasted glucose level at 30 nmol/kg, sc administered twice daily for 3 weeks; type: functional, organism-based
[10] = tested on: Mus musculus; experiment: Antidiabetic activity in male […] assessed as increase in serum HDL/LDL ratio at 30 nmol/kg, sc administered twice daily for 3 weeks; type: functional, organism-based

| Compound | EC50 [1] [nM] | Activity [2] [%] | EC50 [3] [nM] | other results |
| --- | --- | --- | --- | --- |
| H-HSQGTYTNDVSKYLDSRRAQDFIEWLIKG-NH2 | 1.9 | 7.3 | 0.56 | – |
| CC[C@H](C)[C@H](NC(=O)[C@H](Cc1ccccc1)NC(=O)[C@H](CC(=O)O)NC(=O)[C@H](CCC(N)=O)NC(=O)[C@H](C)NC(=O)[C@H](CCCNC(=N)N)NC(=O)[C@H](CCCNC(=N)N)NC(=O)[C@H](CO)NC(=O)[C@H](CC(=O)O)NC(=O)[C@H](CC(C)C)NC(=O)[C@H](Cc1ccc(O)cc1)NC(=O)[C@H](CCCCN)NC(=O)[C@H](CO)NC(=O)[C@@H](NC(=O)[C@H](CC(=O)O)NC(=O)[C@H](CC(N)=O)NC(=O)[C@@H](NC(=O)[C@H](Cc1ccc(O)cc1)NC(=O)[C@@H](NC(=O)CNC(=O)[C@H](CCC(N)=O)NC(=O)[C@H](CO)NC(=O)[C@@H](N)Cc1c[nH]cn1)[C@@H](C)O)[C@@H](C)O)C(C)C)C(=O)N[C@@H](CCC(=O)O)C(=O)N[C@@H](Cc1c[nH]c2ccccc12)C(=O)N[C@@H](CC(C)C)C(=O)N[C@@H](CCSC)C(=O)N[C@@H](CC(N)=O)C(=O)N[C@H](C(N)=O)C(C)O (some centres undefined) (H-HSQGTYTNDVSKYLDSRRAQDFIEWLMN[Thr(3ξ)]-NH2) | 0.41 | 6 | 0.68 | – |
| H-HSQGTYTNDVTEYLDSRRAQDFIEWLKNGGPSSGAPPPS-NH2 | 39 | 18.6 | 0.22 | – |
| CCCCCCCCCCCCCCCC(=O)N[C@@H](CCC(=O)N[C@@H](CCC(=O)NCCCC[C@H](NC(=O)[C@H](CC(=O)O)NC(=O)[C@H](CO)NC(=O)[C@@H](NC(=O)[C@H](Cc1ccccc1)NC(=O)[C@@H](NC(=O)CNC(=O)[C@H](CCC(N)=O)NC(=O)[C@H](CO)NC(=O)[C@@H](N)Cc1cnc[nH]1)[C@@H](C)O)[C@@H](C)O)C(=O)N[C@@H](CO)C(=O)N[C@@H](CCC(=O)O)C(=O)N[C@@H](Cc1ccc(O)cc1)C(=O)N[C@@H](CC(C)C)C(=O)N[C@@H](CC(=O)O)C(=O)N[C@@H](CO)C(=O)N[C@@H](CCC(=O)O)C(=O)N[C@@H](CCCNC(=N)N)C(=O)N[C@@H](C)C(=O)N[C@@H](CCCNC(=N)N)C(=O)N[C@@H](CC(=O)O)C(=O)N[C@@H](Cc1ccccc1)C(=O)N[C@H](C(=O)N[C@@H](C)C(=O)N[C@@H](Cc1c[nH]c2ccccc12)C(=O)N[C@@H](CC(C)C)C(=O)N[C@@H](CCC(=O)O)C(=O)N[C@@H](C)C(=O)NCC(=O)NCC(=O)O)C(C)C)C(=O)O)C(=O)O | – | – | – | Activity [4]: 26.4%; Activity [5]: Active; Activity [6]: Active; Activity [7]: Non-Toxic; Activity [8]: Active; Activity [9]: Active; Activity [10]: Active |
| H-HSQGTYTNDVSKYLDSRRAQDFIEWLKNGGPSSGAPPPS-NH2 | 0.15 | – | 0.053 | Activity ([2]; filed as agonist): 77.4% |
| H-HSQGTYTNDVSKYLDSRRAQQFIEWLMNTKRNRNNIA-NH2 | 0.42 | 7.2 | 0.57 | – |
| H-HSQGTYTNDVSKYLDSRRAQDFIEWLIKGKRNRNNIA-NH2 | 0.28 | – | 0.078 | Activity ([2]; filed as agonist): 52.6% |
| CCCCCCCCCCCCCCCC(=O)N[C@@H](CCC(=O)NCCCC[C@H](NC(=O)[C@H](CO)NC(=O)[C@@H]1CCCN1C(=O)[C@@H]1CCCN1C(=O)[C@@H]1CCCN1C(=O)[C@H](C)NC(=O)CNC(=O)[C@H](CO)NC(=O)[C@H](CO)NC(=O)[C@@H]1CCCN1C(=O)CNC(=O)CNC(=O)[C@H](CC(N)=O)NC(=O)[C@H](CCCCN)NC(=O)[C@H](CC(C)C)NC(=O)[C@H](Cc1c[nH]c2ccccc12)NC(=O)[C@H](CCC(=O)O)NC(=O)[C@@H](NC(=O)[C@H](Cc1ccccc1)NC(=O)[C@H](CC(=O)O)NC(=O)[C@H](CCC(N)=O)NC(=O)[C@H](C)NC(=O)[C@H](CCCNC(=N)N)NC(=O)[C@H](CCCNC(=N)N)NC(=O)[C@H](CO)NC(=O)[C@H](CC(=O)O)NC(=O)[C@H](CC(C)C)NC(=O)[C@H](Cc1ccc(O)cc1)NC(=O)[C@H](CCCCN)NC(=O)[C@H](CO)NC(=O)[C@@H](NC(=O)[C@H](CC(=O)O)NC(=O)[C@H](CC(N)=O)NC(=O)[C@@H](NC(=O)[C@H](Cc1ccc(O)cc1)NC(=O)[C@@H](NC(=O)CNC(=O)[C@H](CCC(N)=O)NC(=O)[C@@H](CO)NC(=O)[C@@H](N)Cc1c[nH]cn1)[C@@H](C)O)[C@@H](C)O)C(C)C)[C@@H](C)CC)C(N)=O)C(=O)O | 0.28 | – | 0.086 | Activity ([2]; filed as agonist): 47.7% |
| CC[C@H](C)[C@H](NC(=O)[C@H](Cc1ccccc1)NC(=O)[C@H](CC(=O)O)NC(=O)[C@H](CCC(N)=O)NC(=O)[C@H](C)NC(=O)[C@H](CCCNC(=N)N)NC(=O)[C@H](CCCNC(=N)N)NC(=O)[C@H](CO)NC(=O)[C@H](CC(=O)O)NC(=O)[C@H](CC(C)C)NC(=O)[C@H](Cc1ccc(O)cc1)NC(=O)[C@H](CCC(N)=O)NC(=O)[C@@H](NC(=O)[C@@H](NC(=O)[C@H](CC(=O)O)NC(=O)[C@H](CC(N)=O)NC(=O)[C@@H](NC(=O)[C@H](Cc1ccc(O)cc1)NC(=O)[C@@H](NC(=O)CNC(=O)[C@H](CCC(N)=O)NC(=O)[C@H](CO)NC(=O)[C@@H](N)Cc1c[nH]cn1)[C@@H](C)O)[C@@H](C)O)C(C)C)[C@@H](C)O)C(=O)N[C@@H](CCC(=O)O)C(=O)N[C@@H](Cc1c[nH]c2ccccc12)C(=O)N[C@@H](CC(C)C)C(=O)N[C@@H](CCSC)C(=O)N[C@@H](CC(N)=O)C(=O)N[C@H](C(N)=O)C(C)O (some centres undefined) (H-HSQGTYTNDVTQYLDSRRAQDFIEWLMN[Thr(3ξ)]-NH2) | 0.43 | 5.6 | 0.73 | – |
| H-HSQGTYTNDVSKYLDSRRAQDFIEWLIKGK-NH2 | 1.3 | 29.3 | 0.14 | – |
| H-HSQGTYTNDVTQYLDSRRAQQFIEWLMNTKRNRNNIA-NH2 | 0.93 | 6.6 | 0.62 | – |
| H-HSQGTYTNDVTEYLDSRRAQEFIEWLIKGK-NH2 | 2.7 | 25.6 | 0.16 | – |
| H-HSQGTYTNDVTEYLDSRRAQDFIEWLIKGKPSSGAPPPS-NH2 | 1.3 | 9.1 | 0.45 | – |
| CC[C@H](C)[C@H](NC(=O)[C@H](CC(C)C)NC(=O)[C@H](Cc1c[nH]c2ccccc12)NC(=O)[C@H](CCC(=O)O)NC(=O)[C@@H](NC(=O)[C@H](Cc1ccccc1)NC(=O)[C@H](CCC(=O)O)NC(=O)[C@H](CCCCN)NC(=O)[C@H](C)NC(=O)[C@H](C)NC(=O)[C@H](CCC(=O)O)NC(=O)[C@H](CCC(=O)O)NC(=O)[C@H](CCC(=O)O)NC(=O)[C@H](CC(C)C)NC(=O)[C@H](Cc1ccc(O)cc1)NC(=O)[C@H](CCC(=O)O)NC(=O)[C@@H](NC(=O)[C@@H](NC(=O)[C@H](CC(=O)O)NC(=O)[C@H](CC(N)=O)NC(=O)[C@@H](NC(=O)[C@H](Cc1ccc(O)cc1)NC(=O)[C@@H](NC(=O)CNC(=O)[C@H](CCC(=O)O)NC(=O)C(C)(C)NC(=O)[C@@H](N)Cc1c[nH]cn1)[C@@H](C)O)[C@@H](C)O)C(C)C)[C@@H](C)O)[C@@H](C)CC)C(=O)N[C@@H](CCCCN)C(=O)NCC(=O)N[C@@H](CCCCN)C(N)=O (H-H[Aib]EGTYTNDVTEYLEEEAAKEFIEWLIKGK-NH2) | > 1000 | – | 0.041 | Activity ([2]; filed as agonist): 100% |
| H-HSQGTYTNDVTEYLDSRRAQDFIEWLIKGK-NH2 | 2.6 | 34.2 | 0.12 | – |
| H-HSQGTYTNDVSKYLDSRRAQDFIEWLIKGKPSSGAPPPS-NH2 | 0.85 | 17.1 | 0.24 | – |
| CCCCCCCCCCCCCCCC(=O)N[C@H](CCC(=O)NCCCC[C@H](NC(=O)[C@H](CO)NC(=O)[C@@H](NC(=O)[C@H](CC(=O)O)NC(=O)[C@H](CC(N)=O)NC(=O)[C@@H](NC(=O)[C@H](Cc1ccc(O)cc1)NC(=O)[C@@H](NC(=O)CNC(=O)[C@H](CCC(N)=O)NC(=O)[C@@H](CO)NC(=O)[C@@H](N)Cc1c[nH]cn1)[C@@H](C)O)[C@@H](C)O)C(C)C)C(=O)N[C@@H](Cc1ccc(O)cc1)C(=O)N[C@@H](CC(C)C)C(=O)N[C@@H](CC(=O)O)C(=O)N[C@@H](CO)C(=O)N[C@@H](CCCNC(=N)N)C(=O)N[C@@H](CCCNC(=N)N)C(=O)N[C@@H](C)C(=O)N[C@@H](CCC(N)=O)C(=O)N[C@@H](CC(=O)O)C(=O)N[C@@H](Cc1ccccc1)C(=O)N[C@H](C(=O)N[C@@H](CCC(=O)O)C(=O)N[C@@H](Cc1c[nH]c2ccccc12)C(=O)N[C@@H](CC(C)C)C(=O)N[C@@H](CCCCN)C(=O)N[C@@H](CC(N)=O)C(=O)NCC(=O)NCC(=O)N1CCC[C@H]1C(=O)N[C@@H](CO)C(=O)N[C@@H](CO)C(=O)NCC(=O)N[C@@H](C)C(=O)N1CCC[C@H]1C(=O)N1CCC[C@H]1C(=O)N1CCC[C@H]1C(=O)N[C@@H](CO)C(N)=O)[C@@H](C)CC)C(=O)O | – | – | – | Activity ([2]; filed as agonist): 80.4%; EC50 ([3]; hek293): 0.051 nM |
